From US20060160197A1 (priority 2004, published 2006)

What was measured:
Type in all cases: physicochemical
[1] = Example 22 back extraction using water from loaded solvent (70% trialkylamine/30% toluene), 140° C.; details: back extraction into deionized water, 70% C8-C10 trialkylamine/30% toluene, 40 psig nitrogen
Protocol: (§1) A variety of analytical methods can be employed to analyze the reactants and products produced using the present methods include HPLC, GC, ion selective electrodes, MS, NMR, etc. HPLC was used to measure glycolic acid and various related products. Briefly, samples are diluted with water (as needed to be within HPLC detection range) and mixed 1:1 with 0.2 M n-propanol in water (HPLC internal standard). HPLC Analytical Method: (BioRad HPX 87H ion exclusion column (BioRad, Hercules, Calif.), 300 mm×7.8 mm; 0.01 N H2SO4 mobile phase; 1.0 mL/min flow at 50° C.; 10 μL injection volume; RI detector and UV 210 nm, 20 min analysis time). HPLC Equipment: (Waters 2695 ‘Alliance’ Separations Module, 2410 Refractive Index Detector, 2487 Dual λ Absorbance Detector and Empower Pro Software (Waters Corp, Milford, Mass.).
Back Extraction Using Water from a Loaded Solvent of Approximately 70% C8-C10 Trialkylamine in Combination with 30% Toluene
Into a 85-mL pressure reaction glass tube (pressure reaction vessel, from Andrews Glass Co.) equipped with magnetic stir bar and double dip tubes was placed 10 mL deionized water and 10 mL of the loaded solvent (see Example 16). The vessel was then closed, and the headspace purged with nitrogen. The resulting mixture was stirred for 60 minutes at 140° C. under 40 psig (˜275.8 kPa) nitrogen. The stirring was stopped and the two phases allowed to separate at 140° C., then the organic phase was sampled under pressure through the top dip tube into a Hoke cylinder, and aqueous phases was sampled under pressure through the bottom dip tube into another Hoke cylinder.

[2] = Example 11 reactive solvent extraction, 70% Alamine 336/30% 1-octanol, 75° C.; details: pH 2 to 3
Protocol: as §1
Solvent Extraction Using Approximately 70% C8-C10 Trialkylamine in Combination with 30% 1-Octanol at 75° C.
Into a 4-mL glass reactor equipped with magnetic stir bar was placed 1 mL of a mixed solvent containing 70% (volume/volume) Alamine® 336 (Cognis), 30% (volume/volume) 1-octanol. The pH of an aqueous solution of ammonium glycolate (5 wt % to 40 wt %) was adjusted to pH 2 to 3 with concentrated sulfuric acid, then 1 mL of the resulting aqueous solution was added to the reactor. The resulting mixture was stirred for 30 minutes at 75° C.

[3] = Example 7 reactive solvent extraction, 50% Alamine 336/10% MIBK/40% kerosene, 75° C.; details: pH 2 to 3
Protocol: as §1
Solvent Extraction Using Approximately 50% C8-C10 Trialkylamine in Combination with 10% Methyl Isobutyl Ketone and 40% Kerosene at 75° C.
Into a 4-mL glass reactor equipped with magnetic stir bar was placed 1 mL of a mixed solvent containing 50% (volume/volume) Alamine® 336 (Cognis), 10% (volume/volume) methyl isobutyl ketone (MIBK) and 40% (volume/volume) kerosene. The pH of an aqueous solution of ammonium glycolate (5 wt % to 40 wt %) was adjusted to pH 2 to 3 with concentrated sulfuric acid, then 1 mL of the resulting aqueous solution was added to the reactor. The resulting mixture was stirred for 30 minutes at 75° C.

[4] = Example 15 reactive solvent extraction, 90% Alamine 336/10% xylenes, 75° C.; details: pH 2 to 3
Protocol: as §1
Solvent Extraction Using Approximately 90% C8-C10 Trialkylamine in Combination with 10% Xylenes at 75° C.
Into a 4-mL glass reactor equipped with magnetic stir bar was placed 1 mL of a mixed solvent containing 90% (volume/volume) Alamine® 336 (Cognis), 10% (volume/volume) xylenes (mixed xylene isomers). The pH of an aqueous solution of ammonium glycolate (5 wt % to 40 wt %) was adjusted to pH 2 to 3 with concentrated sulfuric acid, then 1 mL of the resulting aqueous solution was added to the reactor. The resulting mixture was stirred for 30 minutes at 75° C.

[5] = Example 13 reactive solvent extraction, 90% Alamine 336/10% toluene, 75° C.; details: pH 2 to 3
Protocol: as §1
Solvent Extraction Using Approximately 90% C8-C10 Trialkylamine in Combination with 10% Toluene at 75° C.
Into a 4-mL glass reactor equipped with magnetic stir bar was placed 1 mL of a mixed solvent containing 90% (volume/volume) Alamine® 336 (Cognis), 10% (volume/volume) toluene. The pH of an aqueous solution of ammonium glycolate (5 wt % to 40 wt %) was adjusted to pH 2 to 3 with concentrated sulfuric acid, then 1 mL of the resulting aqueous solution was added to the reactor. The resulting mixture was stirred for 30 minutes at 75° C.

[6] = Example 2 reactive solvent extraction, 70% Alamine 336/10% MIBK/20% kerosene, 50° C.; details: pH 2 to 3
Protocol: as §1
Solvent Extraction Using Approximately 70% C8-C10 Trialkylamine in Combination with 10% Methyl Isobutyl Ketone and 20% Kerosene at 50° C.
Into a 4-mL glass reactor equipped with magnetic stir bar was placed 1 mL of a mixed solvent containing 70% (volume/volume) Alamine® 336 (Cognis), 10% (volume/volume) methyl isobutyl ketone (MIBK) and 20% (volume/volume) kerosene. The pH of an aqueous solution of ammonium glycolate (5 wt % to 40 wt %) was adjusted to pH 2 to 3 with concentrated sulfuric acid, then 1 mL of the resulting aqueous solution was added to the reactor. The resulting mixture was stirred for 30 minutes at 50° C.

[7] = initial 3.6 wt % glycolic acid in aqueous phase
[8] = initial 8.5 wt % glycolic acid in aqueous phase
[9] = initial 12.1 wt % glycolic acid in aqueous phase
[10] = initial 16.1 wt % glycolic acid in aqueous phase
[11] = initial 20.6 wt % glycolic acid in aqueous phase
[12] = initial 25.1 wt % glycolic acid in aqueous phase
[13] = initial 29.1 wt % glycolic acid in aqueous phase
[14] = initial 32.8 wt % glycolic acid in aqueous phase

O=C(O)CO [glycolic acid]
Partition coefficient (wt % org./wt % aq.) ([1]; initial 3.7 wt % glycolic acid in loaded solvent): 0.26
Partition coefficient (wt % org./wt % aq.) ([1]; initial 10.7 wt % glycolic acid in loaded solvent): 0.30
Partition coefficient (wt % org./wt % aq.) ([1]; initial 14.2 wt % glycolic acid in loaded solvent): 0.38
Partition coefficient (wt % org./wt % aq.) ([1]; initial 15.7 wt % glycolic acid in loaded solvent): 0.28
Partition coefficient (wt % org./wt % aq.) [2, 7]: 0.69
Partition coefficient (wt % org./wt % aq.) [2, 8]: 0.74
Partition coefficient (wt % org./wt % aq.) [2, 9]: 0.64
Partition coefficient (wt % org./wt % aq.) [2, 10]: 0.68
Partition coefficient (wt % org./wt % aq.) [2, 11]: 0.62
Partition coefficient (wt % org./wt % aq.) [2, 12]: 0.61
Partition coefficient (wt % org./wt % aq.) [2, 13]: 0.50
Partition coefficient (wt % org./wt % aq.) [2, 14]: 0.52
Partition coefficient (wt % org./wt % aq.) [3, 7]: 0.38
Partition coefficient (wt % org./wt % aq.) [3, 8]: 0.32
Partition coefficient (wt % org./wt % aq.) [3, 9]: 0.35
Partition coefficient (wt % org./wt % aq.) [3, 10]: 0.28
Partition coefficient (wt % org./wt % aq.) [3, 11]: 0.33
Partition coefficient (wt % org./wt % aq.) [3, 12]: 0.35
Partition coefficient (wt % org./wt % aq.) [3, 13]: 0.35
Partition coefficient (wt % org./wt % aq.) [3, 14]: 0.35
Partition coefficient (wt % org./wt % aq.) [4, 7]: 0.55
Partition coefficient (wt % org./wt % aq.) [4, 8]: 0.55
Partition coefficient (wt % org./wt % aq.) [4, 9]: 0.66
Partition coefficient (wt % org./wt % aq.) [4, 10]: 0.64
Partition coefficient (wt % org./wt % aq.) [4, 11]: 0.65
Partition coefficient (wt % org./wt % aq.) [4, 12]: 0.73
Partition coefficient (wt % org./wt % aq.) [4, 13]: 0.75
Partition coefficient (wt % org./wt % aq.) [4, 14]: 0.72
Partition coefficient (wt % org./wt % aq.) [5, 7]: 0.51
Partition coefficient (wt % org./wt % aq.) [5, 8]: 0.58
Partition coefficient (wt % org./wt % aq.) [5, 9]: 0.67
Partition coefficient (wt % org./wt % aq.) [5, 10]: 0.63
Partition coefficient (wt % org./wt % aq.) [5, 11]: 0.65
Partition coefficient (wt % org./wt % aq.) [5, 12]: 0.73
Partition coefficient (wt % org./wt % aq.) [5, 13]: 0.75
Partition coefficient (wt % org./wt % aq.) [5, 14]: 0.75
Partition coefficient (wt % org./wt % aq.) [6, 7]: 0.32
Partition coefficient (wt % org./wt % aq.) [6, 8]: 0.66
Partition coefficient (wt % org./wt % aq.) [6, 9]: 0.63
Partition coefficient (wt % org./wt % aq.) [6, 10]: 0.74
Partition coefficient (wt % org./wt % aq.) [6, 11]: 0.69
Partition coefficient (wt % org./wt % aq.) [6, 12]: 0.83
Partition coefficient (wt % org./wt % aq.) [6, 13]: 0.68
Partition coefficient (wt % org./wt % aq.) [6, 14]: 0.61
